Where a name gives a salt, the structure may show the parent alone.
Legend:
[1] = Observed behavioural effects in mice after introduction; assay type: in vivo, mice (BALB line); settings: intraperitoneally
Protocol: In all cases trials were carried out on mice of the BALB line of 3-4 month age. Non-toxic doses of compounds under test, varying from 60 to 400 mg/kg, were used in all experiments. In the case of water-soluble compounds aqueous solutions of the test compounds were injected intraperitoneally (i.p.), while water-insoluble compounds were introduced orally (p.o.).
(§1) Compound 1 was dissolved in a twin-water 1:9 (concentration of saturated solution was 40 mg/ml) and introduced intraperitoneally at the rate of 0.2 ml per 20 g of mouse weight.

[2] = Oxygen consumption in mice (closed testing unit, gas analyzer MN 5130); assay type: in vivo, mice (BALB line); settings: for Lowering of oxygen consumption: relative to initial value; for Consumption of oxygen (O2): relative to starting content taken as 100, 390 mg/kg (1.0 mM/kg; 1/2 LD16), mice
Protocol: (§2) In all cases trials were carried out on mice of the BALB line of 3-4 month age. […] In the case of water-soluble compounds aqueous solutions of the test compounds were injected intraperitoneally (i.p.), while water-insoluble compounds were introduced orally (p.o.).
(§3) Rectal temperature changes (absolute magnitudes in ° C.) were measured using a medicinal electrothermometer TREM-1 (Table 1). […] The data on oxygen consumption are given an percents relative to the starting content of oxygen taken as 100 (Table 2).

[3] = Rectal temperature in rats; assay type: in vivo
[4] = Lethal dose determination (LD16, LD50, LD84) in mice; settings: mouse, in vivo, ip
physchem = assay type: physicochemical; settings: twin-water 1:9
Protocol: as §1

[5] = Rectal (body) temperature in mice; assay type: in vivo, mice (BALB line); settings: for Body temperature (T): Table 2, 390 mg/kg (1.0 mM/kg; 1/2 LD16)
Protocol: as §2, §3

Which results are given for CCOC(=O)C(=NOC)C1=NN=C(N2CCOCC2)SC1 [Compound 1, Ethyl-1-methoxyimino-1-(2-morpholino-6H-1,3,4-thiadiazine-5-yl)acetate, hydrobromide]?
Effects of introduction [1]: akiriesia, suppression of reflexes to external disturbance, lateral state of mice; Restoration of oxygen consumption ([2]; Table 2, mice): Full restoration of oxygen consumption was not observed; Lowering of oxygen consumption ([2]; at the fourth hour): 2 fold; Lowering of oxygen consumption ([2]; during the first hour): 7-10 fold; Lowering of oxygen consumption ([2]; for the next 2 hours): 3-4 fold; Consumption of oxygen (O2) ([2]; 0 minutes): 100 percents; Consumption of oxygen (O2) ([2]; 5 minutes): 8.1 percents; Consumption of oxygen (O2) ([2]; 15 minutes): 0.1 percents; Consumption of oxygen (O2) ([2]; 30 minutes): 0.2 percents; Consumption of oxygen (O2) ([2]; 60 minutes): 12.0 percents; Consumption of oxygen (O2) ([2]; 90 minutes): 27.0 percents; Consumption of oxygen (O2) ([2]; 120 minutes): 26.0 percents; Consumption of oxygen (O2) ([2]; 180 minutes): 28.0 percents; Consumption of oxygen (O2) ([2]; 240 minutes): 59.0 percents; Fall of rectal temperature ([3]; 10 minutes after introduction): 3-4 °C; Fall of rectal temperature ([3]; after 30 minutes): about 5 °C; LD16 [4]: 788.4 mg/kg; LD50 [4]: 830 mg/kg; LD84 [4]: 881.5 mg/kg; solubility (physchem): 40 mg/mL; Time to maximum temperature drop [5]: 90 to 120 min; Body temperature ([5]; 391.7 mg/kg (1.0 mM/kg) i.p., 0 minutes): 37.9 °C; Body temperature ([5]; 391.7 mg/kg (1.0 mM/kg) i.p., 30 minutes): 29.6 °C; Body temperature ([5]; 391.7 mg/kg (1.0 mM/kg) i.p., 60 minutes): 26.5 °C; Body temperature ([5]; 391.7 mg/kg (1.0 mM/kg) i.p., 90 minutes): 24.8 °C; Body temperature ([5]; 391.7 mg/kg (1.0 mM/kg) i.p., 120 minutes): 24.6 °C; Body temperature ([5]; 391.7 mg/kg (1.0 mM/kg) i.p., 180 minutes): 32.6 °C; Body temperature ([5]; 391.7 mg/kg (1.0 mM/kg) i.p., 240 minutes): 34.6 °C; Body temperature ([5]; 391.7 mg/kg (1.0 mM/kg) i.p., 300 minutes): 35.9 °C; Fall of rectal temperature ([5]; 10 minutes after introduction): 3-4 °C; Body temperature (T) ([5]; 5 minutes): 33.5 °C; Body temperature (T) ([5]; 15 minutes): 31.2 °C; Fall of rectal temperature ([5]; after 30 minutes): 7-8 °C; Temperature difference ([5]; after five hours): 2 °C; Drop of body temperature ([5]; introduced intraperitoneally): drop of body temperature; Maximum temperature drop ([5]; reached in 90-120 minutes): 12-13 °C

Which results are given for CCOC(=O)C(=NOC)C1=NN=C(N2CCSCC2)SC1 [Compound 4, Ethyl-1-methoxyimino-1-(2-thiomorpholino-6H-1,3,4-thiadiazine-5-yl)acetate, mesylate]?
Body temperature ([5]; 166.0 mg/kg (0.39 mM/kg) i.p., 0 minutes): 38.1 °C; Body temperature ([5]; 166.0 mg/kg (0.39 mM/kg) i.p., 30 minutes): 33.9 °C; Body temperature ([5]; 166.0 mg/kg (0.39 mM/kg) i.p., 60 minutes): 34.9 °C; Body temperature ([5]; 166.0 mg/kg (0.39 mM/kg) i.p., 120 minutes): 35.7 °C; Body temperature ([5]; 166.0 mg/kg (0.39 mM/kg) i.p., 180 minutes): 37.4 °C

For CCOC(=O)C(=NOC)C1=NN=C(N2CCOCC2)SC1 [Compound 2, Ethyl-1-methoxyimino-1-(2-morpholino-6H-1,3,4-thiadiazine-5-yl)acetate, mesylate], which Body temperature ([5]; 410.0 mg/kg (1.0 mM/kg) i.p., 0 minutes) is on record?
The Body temperature was 38.5 °C.

What about the Body temperature ([5]; 410.0 mg/kg (1.0 mM/kg) i.p., 30 minutes) of the same compound?
Its Body temperature is 31.9 °C.

What about the Body temperature ([5]; 410.0 mg/kg (1.0 mM/kg) i.p., 60 minutes) of the same compound?
The Body temperature was 32.8 °C.

What about the Body temperature ([5]; 410.0 mg/kg (1.0 mM/kg) i.p., 90 minutes) of the same compound?
The Body temperature was 35.3 °C.

What about the Body temperature ([5]; 410.0 mg/kg (1.0 mM/kg) i.p., 120 minutes) of the same compound?
The Body temperature was 36.4 °C.

What about the Body temperature ([5]; 410.0 mg/kg (1.0 mM/kg) i.p., 180 minutes) of the same compound?
The Body temperature was 37.6 °C.

And the Body temperature ([5]; 410.0 mg/kg (1.0 mM/kg) i.p., 240 minutes)?
The Body temperature was 38.8 °C.

Reference: patent US6028068A, “Substituted 6H-1,3,4-thiadiazine-2-amines, the use thereof as anaesthetising, cardiovascular and hypometabolic agents, and a pharmaceutical composition containing them” (The Procter & Gamble Company, priority 1999, dated 2000)
